Bridge positions count the residues as written; N and C are the ends. Square brackets hold non-standard residues; d marks the D form. Ends that are not written are not given here. BMB = 3,5-bis(mercaptomethyl)benzoic acid scaffold; 2Nal = N[C@@H](Cc1ccc2ccccc2c1)C(=O)O
How the values were obtained:
HeLa cells = experiment: Flow cytometry cellular uptake of FITC-labeled peptides; type: cell-based; conditions: for mean fluorescence intensity (MFI): 5 μM FITC-labeled peptide; for mean fluorescence intensity (MFI) / higher cell entry efficiency than cFΦR4: 2 h; for higher cell entry efficiency than cFΦR4: 5 μM
Experimental: HeLa cells were cultured in six-well plates (5×10^5 cells per well) for 24 h. On the day of experiment, the cells were incubated with 5 μM FITC-labeled peptide in clear DMEM with 1% FBS at 37° C. for 2 h. The cells were washed with DPBS, detached from plate with 0.25% trypsin, diluted into clear DMEM containing 10% FBS, pelleted at 250 g for 5 min, washed once with DPBS and resuspended in DPBS containing 1% bovine serum albumin, and analyzed on a BD LSR II flow cytometer. Data were analyzed with Flowjo software (Tree Star).
To monitor their cellular uptake, peptides 2 and 3 were labeled with fluorescein isothiocyanate (FITC) on the side chain of a C-terminal lysine. […] Thus, bicyclic peptides 2 and 3 entered HeLa cells with 72% and 36% higher efficiencies, respectively, than cFΦR4 (SEQ ID NO.:72).
Peptides 4 and 5 were labeled with FITC at the side chain of a lysine added to their C-termini and their cellular entry was assessed by flow cytometry. […] Briefly, in the presence of an anti-glutathione-S-transferase (GST) antibody labeled with a fluorescence donor (Tb) and streptavidin labeled with a fluorescence acceptor (d2), binding of GST-NEMO to a biotinylated IKKβ fragment (amino acids 701-745) (B. Gao, et al., Biochemistry 2014, 53, 677) results in a resonance energy transfer. Addition of a NEMO inhibitor blocks the NEMO-IKKβ interaction and reduces the HTRF signal. […] IKKβ contains a phenylalanine at the same position (Phe-734). […] Thus, the phenylalanine in peptide 4 likely plays dual roles of cellular entry and NEMO binding.

mammalian cells = conditions: previously reported; cited from earlier work
[1] = test system: TNFα-induced activation of NF-κB in NF-κB reporter (Luc)-HEK293 cells; experiment: NF-κB luciferase assay
Experimental: NF-κB reporter (Luc)-HEK293 cells were seeded in 96-well microplate in 45 μL of assay medium (DMEM, 10% FBS, and 1% penicillin/streptomycin, 1500 cells per well) and cultured overnight. Five μL of NEMO inhibitor in assay medium was added to cells and the cells were incubated for 2 h. Recombinant TNFα^3 in 5 μL of assay medium was added to the wells at the final concentration of 5 ng/mL. After 4 h of incubation, 55 μL of ONE-Step luciferase assay reagent was added to each well. Luminescence was measured after 10 min of incubation using a Tecan Infinite M1000 Pro microplate reader. Luciferase activities of TNFα unstimulated and stimulated cells were recorded as AU″ and AU^+, respectively. Luciferase activities of TNFα stimulated cells after incubating with different concentrations of NEMO inhibitors were recorded as AU^pep.
The ability of the bicyclic peptides to modulate the NEMO-IKK interaction inside the cell was assessed by monitoring the TNFα-induced activation of NF-κB.

NEMO-IKKβ interaction = target: T1, NEMO-IKKβ interaction (Homo sapiens, UniProt Q9Y6K9); experiment: HTRF assay of the NEMO-IKKβ interaction; type: binding; conditions: up to 100 μM peptide, 5 mM TCEP
T1 construct: transformed with a pGEX4T3-GST-NEMO(1-196) plasmid; made in house; host or cells: Escherichia coli BL21(DE3)
T1 sequence (Q9Y6K9 1-196): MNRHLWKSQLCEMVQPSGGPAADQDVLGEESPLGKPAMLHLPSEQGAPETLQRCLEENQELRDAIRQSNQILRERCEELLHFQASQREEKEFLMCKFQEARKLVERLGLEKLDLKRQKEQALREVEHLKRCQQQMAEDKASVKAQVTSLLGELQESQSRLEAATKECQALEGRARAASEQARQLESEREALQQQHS

Substance: 2: bicyclic model peptide with CPP motif and mock cargo SASAS on BMB scaffold (cyclo(RRRR[2Nal]FCSASASCK); linker 7-13 via BMB (inferred)) [Peptide 2]
- mean fluorescence intensity (MFI) (HeLa cells): 5180
- higher cell entry efficiency than cFΦR4 (HeLa cells; relative to cFΦR4): 72%

Substance: Cyclo(FΦRRRRQ) [cFΦR4, reference compound]
- cytosolic delivery efficiency (ratio of cytosolic over extracellular cargo concentration) (mammalian cells): 20%
- mean fluorescence intensity (MFI) (HeLa cells): 3020

Substance: 5: control, similar to peptide 4 but two Ala residues in place of the two Trp residues (RRRR[2Nal]FCALDASALQC; linker 7-16 via BMB; not fully specified (C-terminus, bridges)) [Peptide 5]
- effect on NF-κB signaling ([1]; at 20 μM): no significant effect
- inhibition of NF-κB signaling ([1]; highest concentration tested (40 μM)): ~10%
- inhibition of the NEMO-IKKβ interaction (NEMO-IKKβ interaction): only minor inhibition
- MFI higher than that of cFΦR4 (HeLa cells; FITC-labeled peptide, relative to cFΦR4): 2 fold

Substance: 3: bicyclic model peptide with CPP motif and mock cargo SASAS on BMB scaffold (cyclo(SASASCF[2Nal]RRRRCK); linker 6-13 via BMB (inferred)) [Peptide 3]
- mean fluorescence intensity (MFI) (HeLa cells): 4100
- higher cell entry efficiency than cFΦR4 (HeLa cells; relative to cFΦR4): 36%
